Patent US10640497B2, “Microbiocidal oxadiazole derivatives” (SYNGENTA PARTICIPATIONS AG, priority 2015, dated 2020)

Key:
[1] = system: Puccinia recondita f. sp. tritici; assay: Fungicidal activity against Puccinia recondita f. sp. tritici, wheat, leaf disc curative (brown rust); type: in vivo; conditions: foliar, 144 h, wheat leaf segments, curative (applied 1 day after inoculation), 6-8 days after application, compared to untreated control
Method: (§1) Leaf disks or leaf segments of various plant species are cut from plants grown in a greenhouse. The cut leaf disks or segments are placed in multiwell plates (24-well format) onto water agar. The leaf disks are sprayed with a test solution before (preventative) or after (curative) inoculation. Compounds to be tested are prepared as DMSO solutions (max. 10 mg/ml) which are diluted to the appropriate concentration with 0.025% Tween20 just before spraying. The inoculated leaf disks or segments are incubated under defined conditions (temperature, relative humidity, light, etc.) according to the respective test system. A single evaluation of disease level is carried out 3 to 14 days after inoculation, depending on the pathosystem. Percent disease control relative to the untreated check leaf disks or segments is then calculated. Wheat leaf segments cv. Kanzler are placed on agar in multiwell plates (24-well format). The leaf segments are inoculated with a spore suspension of the fungus. Plates are stored in darkness at 19° C. and 75% rh. The formulated test compound diluted in water is applied 1 day after inoculation. The leaf segments are incubated at 19° C. and 75% rh under a light regime of 12 h light/12 h darkness in a climate cabinet and the activity of a compound is assessed as percent disease control compared to untreated when an appropriate level of disease damage appears in untreated check leaf segments (6-8 days after application).

[2] = system: Glomerella lagenarium (Colletotrichum lagenarium); assay: Fungicidal activity against Glomerella lagenarium (Colletotrichum lagenarium), liquid culture, cucumber, preventative (anthracnose); type: cell-based; conditions: Colletotrichum orbiculare, liquid culture (PDB), growth inhibition measured photometrically 3-4 days after application, compared to untreated control
Method: Mycelia fragments or conidia suspensions of a fungus, prepared either freshly from liquid cultures of the fungus or from cryogenic storage, are directly mixed into nutrient broth. DMSO solutions of the test compound (max. 10 mg/ml) is diluted with 0.025% Tween20 by a factor of 50 and 10 μl of this solution is pipetted into a microtiter plate (96-well format). The nutrient broth containing the fungal spores/mycelia fragments is then added to give an end concentration of the tested compound. The test plates are incubated in the dark at 24° C. and 96% relative humidity. The inhibition of fungal growth is determined photometrically after 2 to 7 days, depending on the pathosystem, and percent antifungal activity relative to the untreated check is calculated. Conidia of the fungus from cryogenic storage are directly mixed into nutrient broth (PDB potato dextrose broth). After placing a (DMSO) solution of test compound into a microtiter plate (96-well format), the nutrient broth containing the fungal spores is added. The test plates are incubated at 24° C. and the inhibition of growth is measured photometrically 3-4 days after application.

[3] = system: Phakopsora pachyrhizi; assay: Fungicidal activity against Phakopsora pachyrhizi, soybean, leaf disc preventative (Asian soybean rust); type: in vivo; conditions: foliar, 288 h, 12-14 days after application, compared to untreated control
Method: Leaf disks or leaf segments of various plant species are cut from plants grown in a greenhouse. The cut leaf disks or segments are placed in multiwell plates (24-well format) onto water agar. The leaf disks are sprayed with a test solution before (preventative) or after (curative) inoculation. Compounds to be tested are prepared as DMSO solutions (max. 10 mg/ml) which are diluted to the appropriate concentration with 0.025% Tween20 just before spraying. The inoculated leaf disks or segments are incubated under defined conditions (temperature, relative humidity, light, etc.) according to the respective test system. A single evaluation of disease level is carried out 3 to 14 days after inoculation, depending on the pathosystem. Percent disease control relative to the untreated check leaf disks or segments is then calculated. Soybean leaf disks are placed on water agar in multiwell plates (24-well format) and sprayed with the formulated test compound diluted in water. One day after application leaf discs are inoculated by spraying a spore suspension on the lower leaf surface. After an incubation period in a climate cabinet of 24-36 hours in darkness at 20° C. and 75% rh leaf disc are kept at 20° C. with 12 h light/day and 75% rh. The activity of a compound is assessed as percent disease control compared to untreated when an appropriate level of disease damage appears in untreated check leaf disks (12-14 days after application).

[4] = system: Puccinia recondita f. sp. tritici; assay: Fungicidal activity against Puccinia recondita f. sp. tritici, wheat, leaf disc preventative (brown rust); type: in vivo; conditions: foliar, wheat leaf segments, preventative (inoculated 1 day after application), 7-9 days after application, compared to untreated control
Method: as §1, with “plates (24-well format) and sprayed with the formulated test compound diluted in water. The leaf” for “plates (24-well format). The leaf”, “of the fungus 1 day” for “of the fungus. Plates are stored in darkness at 19° C. and 75% rh. The formulated test compound diluted in water is applied 1 day”, “day after application. The inoculated” for “day after inoculation. The leaf”, “application. The inoculated leaf segments” for “inoculation. The leaf segments”, “leaf segments (7-9 days after” for “leaf segments (6-8 days after”

CC1(C)CC(=O)N(Cc2ccc(-c3noc(C(F)(F)F)n3)cc2)O1 [Compound A-6, 5,5-dimethyl-2-[[4-[5-(trifluoromethyl)-1,2,4-oxadiazol-3-yl]phenyl]methyl]isoxazolidin-3-one]
≥ 80%: pest or weed control at 200 ppm [1] | inhibition of growth at 20 ppm [2] | pest or weed control at 200 ppm [3] | pest or weed control at 200 ppm [4]

CC1CC(=O)N(Cc2ccc(-c3noc(C(F)(F)F)n3)cc2)C1 (stereo not drawn) [Compound A-8, 4-methyl-1-[[4-[5-(trifluoromethyl)-1,2,4-oxadiazol-3-yl]phenyl]methyl]pyrrolidin-2-one]
≥ 80%: pest or weed control at 200 ppm [1] | inhibition of growth at 20 ppm [2] | pest or weed control at 200 ppm [3] | pest or weed control at 200 ppm [4]

CC1CCCN(Cc2ccc(-c3noc(C(F)(F)F)n3)cc2)C1=O (stereo not drawn) [Compound A-10, 3-methyl-1-[[4-[5-(trifluoromethyl)-1,2,4-oxadiazol-3-yl]phenyl]methyl]piperidin-2-one]
≥ 80%: pest or weed control at 200 ppm [1] | inhibition of growth at 20 ppm [2] | pest or weed control at 200 ppm [3] | pest or weed control at 200 ppm [4]

CC1(C)CC(=O)N(Cc2ccc(-c3noc(C(F)(F)F)n3)cc2)C(=O)C1 [Compound A-11, 4,4-dimethyl-1-[[4-[5-(trifluoromethyl)-1,2,4-oxadiazol-3-yl]phenyl]methyl]piperidine-2,6-dione]
≥ 80%: pest or weed control at 200 ppm [1] | inhibition of growth at 20 ppm [2] | pest or weed control at 200 ppm [3] | pest or weed control at 200 ppm [4]

O=C1CCCCN1Cc1ccc(-c2noc(C(F)(F)F)n2)cn1 [Compound A-12, 1-[[5-[5-(trifluoromethyl)-1,2,4-oxadiazol-3-yl]-2-pyridyl]methyl]piperidin-2-one]
≥ 80%: pest or weed control at 200 ppm [1] | inhibition of growth at 20 ppm [2] | pest or weed control at 200 ppm [3] | pest or weed control at 200 ppm [4]

CC1CCC(=O)N1Cc1ccc(-c2noc(C(F)(F)F)n2)cc1 (stereo not drawn) [Compound A-13, 5-methyl-1-[[4-[5-(trifluoromethyl)-1,2,4-oxadiazol-3-yl]phenyl]methyl]pyrrolidin-2-one]
≥ 80%: pest or weed control at 200 ppm [1] | inhibition of growth at 20 ppm [2] | pest or weed control at 200 ppm [3] | pest or weed control at 200 ppm [4]

CC1CCCC(=O)N1Cc1ccc(-c2noc(C(F)(F)F)n2)cc1 (stereo not drawn) [Compound A-14, 6-methyl-1-[[4-[5-(trifluoromethyl)-1,2,4-oxadiazol-3-yl]phenyl]methyl]piperidin-2-one]
≥ 80%: pest or weed control at 200 ppm [1] | inhibition of growth at 20 ppm [2] | pest or weed control at 200 ppm [3] | pest or weed control at 200 ppm [4]

O=C1C2CCC(CC2)N1Cc1ccc(-c2noc(C(F)(F)F)n2)cc1 [Compound A-15, 3-[[4-[5-(trifluoromethyl)-1,2,4-oxadiazol-3-yl]phenyl]methyl]-3-azabicyclo[2.2.2]octan-2-one]
≥ 80%: pest or weed control at 200 ppm [1] | inhibition of growth at 20 ppm [2] | pest or weed control at 200 ppm [3] | pest or weed control at 200 ppm [4]

CC1(C)CCCN(Cc2ccc(-c3noc(C(F)(F)F)n3)cc2)C1=O [Compound A-16, 3,3-dimethyl-1-[[4-[5-(trifluoromethyl)-1,2,4-oxadiazol-3-yl]phenyl]methyl]piperidin-2-one]
≥ 80%: pest or weed control at 200 ppm [1] | inhibition of growth at 20 ppm [2] | pest or weed control at 200 ppm [3] | pest or weed control at 200 ppm [4]

CC1CCN(Cc2ccc(-c3noc(C(F)(F)F)n3)cc2)C(=O)C1 (stereo not drawn) [Compound A-17, 4-methyl-1-[[4-[5-(trifluoromethyl)-1,2,4-oxadiazol-3-yl]phenyl]methyl]piperidin-2-one]
≥ 80%: pest or weed control at 200 ppm [1] | inhibition of growth at 20 ppm [2] | pest or weed control at 200 ppm [3] | pest or weed control at 200 ppm [4]

CC1CCC(=O)N(Cc2ccc(-c3noc(C(F)(F)F)n3)cc2)C1 (stereo not drawn) [Compound A-18, 5-methyl-1-[[4-[5-(trifluoromethyl)-1,2,4-oxadiazol-3-yl]phenyl]methyl]piperidin-2-one]
≥ 80%: pest or weed control at 200 ppm [1] | inhibition of growth at 20 ppm [2] | pest or weed control at 200 ppm [3] | pest or weed control at 200 ppm [4]

COC1CCCN(Cc2ccc(-c3noc(C(F)(F)F)n3)cc2)C1=O (stereo not drawn) [Compound A-19, 3-methoxy-1-[[4-[5-(trifluoromethyl)-1,2,4-oxadiazol-3-yl]phenyl]methyl]piperidin-2-one]
≥ 80%: pest or weed control at 200 ppm [1] | inhibition of growth at 20 ppm [2] | pest or weed control at 200 ppm [3] | pest or weed control at 200 ppm [4]

O=C1CC(C(F)(F)F)N1Cc1ccc(-c2noc(C(F)(F)F)n2)cc1 (stereo not drawn) [Compound A-20, 4-(trifluoromethyl)-1-[[4-[5-(trifluoromethyl)-1,2,4-oxadiazol-3-yl]phenyl]methyl]azetidin-2-one]
≥ 80%: pest or weed control at 200 ppm [1] | inhibition of growth at 20 ppm [2] | pest or weed control at 200 ppm [3] | pest or weed control at 200 ppm [4]

O=C1CCC(C(F)F)N1Cc1ccc(-c2noc(C(F)(F)F)n2)cc1 (stereo not drawn) [Compound A-21, 5-(difluoromethyl)-1-[[4-[5-(trifluoromethyl)-1,2,4-oxadiazol-3-yl]phenyl]methyl]pyrrolidin-2-one]
≥ 80%: pest or weed control at 200 ppm [1] | inhibition of growth at 20 ppm [2] | pest or weed control at 200 ppm [3] | pest or weed control at 200 ppm [4]

O=C1CCN1Cc1ccc(-c2noc(C(F)(F)F)n2)cc1 [Compound A-23, 1-[[4-[5-(trifluoromethyl)-1,2,4-oxadiazol-3-yl]phenyl]methyl]azetidin-2-one]
≥ 80%: pest or weed control at 200 ppm [1] | inhibition of growth at 20 ppm [2] | pest or weed control at 200 ppm [3] | pest or weed control at 200 ppm [4]
